Source: paper PMC6169318 (Organic & biomolecular chemistry, 2017)

Assays:
Sco GlgEI-V279S [1] = molecular target: T1, Sco GlgEI-V279S (Streptomyces coelicolor, UniProt Q9L1K2, V279S); conditions: earlier work; cited from earlier work
Sco GlgEI-V279S [2] = molecular target: T1, Sco GlgEI-V279S; conditions: ratio of Ki values

T1 sequence (Q9L1K2 whole entry V279S): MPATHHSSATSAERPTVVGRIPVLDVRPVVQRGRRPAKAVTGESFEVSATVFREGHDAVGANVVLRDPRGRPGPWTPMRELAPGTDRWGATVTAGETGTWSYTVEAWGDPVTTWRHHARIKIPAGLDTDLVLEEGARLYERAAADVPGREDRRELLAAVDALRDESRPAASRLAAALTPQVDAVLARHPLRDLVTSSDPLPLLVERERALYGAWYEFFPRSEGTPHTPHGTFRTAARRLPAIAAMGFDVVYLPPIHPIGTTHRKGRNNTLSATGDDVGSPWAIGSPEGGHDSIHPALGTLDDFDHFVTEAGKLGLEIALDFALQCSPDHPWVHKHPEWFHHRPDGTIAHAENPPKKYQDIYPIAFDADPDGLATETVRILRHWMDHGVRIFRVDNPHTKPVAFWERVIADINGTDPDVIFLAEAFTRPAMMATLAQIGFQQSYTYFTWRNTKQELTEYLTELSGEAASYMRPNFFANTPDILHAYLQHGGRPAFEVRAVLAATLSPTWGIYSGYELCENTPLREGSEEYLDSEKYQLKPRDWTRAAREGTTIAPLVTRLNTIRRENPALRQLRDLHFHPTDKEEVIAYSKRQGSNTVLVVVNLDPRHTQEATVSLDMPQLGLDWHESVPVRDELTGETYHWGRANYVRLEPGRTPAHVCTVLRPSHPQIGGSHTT

Structure (SMILES)	inhibitory activity against Sco GlgEI-V279S (in words) (Sco GlgEI-V279S [1])	fold more potent than previously reported inhibitor 4 (Sco GlgEI-V279S [2]; 5 versus 4) [fold]	fold more potent than two carbon phosphonate 6 (Sco GlgEI-V279S [2]; 5 versus 6) [fold]
OC[C@H]1N[C@H](CO)[C@@H](O[C@H]2O[C@H](CO)[C@@H](O)[C@H](O)[C@H]2O)[C@@H]1O [Compound 4, 2,5-dideoxy-3-O-α-D-glucopyranosyl-2,5-imino-D-mannitol]	moderate inhibitory activity		
O=P(O)(O)CN1C(CO)C(O)C(O[C@H]2O[C@H](CO)[C@@H](O)[C@H](O)[C@H]2O)C1CO (stereo partly drawn) [Compound 5, ((3-Hydroxy-2,5-bis(hydroxymethyl)-(3-O-α-D-glucopyranosyl)pyrrolidin-1-yl)methyl)phosphonic acid]		2	2
